Measured values published in patent US7488583B2, “Fragment complementation assays for G-protein-coupled receptors and their signaling pathways” (Odyssey Thera, Inc., priority 2003, dated 2009).
“Also recorded” adds a separate entry of the source. Non-standard residues stand in square brackets, D forms with d. Residues, ends and D or L forms follow the SMILES beside them. *: point of attachment. Nle = CCCC[C@H](N)C(=O)O; Cbz = O=C(OCc1ccccc1)*

Columns and labels:
[1] = tested on: association of beta-arrestin2 and ubiquitin; experiment: beta-arrestin2/ubiquitin PCA (ubiquitination of beta-arrestin2); format: cell-based; details: for beta-arrestin2/ubiquitin assay fluorescence, positive pixel mean (PPM) as percent of control (FIG. 12): versus negative control (vehicle alone)
From the text: To illustrate another example of a novel assay constructed using the methods provided herein, we developed a protein-fragment complementation assay to measure the association of beta-arrestin2 and ubiquitin (see FIGS. 11-12) using the methods described here. Ubiquitin is a highly conserved 76-amino acid polypeptide. Since its discovery in the mid-1970s, ubiquitin has been associated with cellular house-keeping functions such as eliminating damaged proteins. It has recently become clear that ubiquitin is involved in a variety of other vital processes at different subcellular locations ranging from the plasma membrane to the nucleus, including cell-cycle progression, signal transduction, transcriptional regulation, receptor down-regulation, and endocytosis. Ubiquitin is covalently attached to proteins through an isopeptide bond between its carboxy-terminal glycine and the epsilon-amino group of lysines in the target protein. This attachment is catalyzed by enzymes that activate and ultimately conjugate the ubiquitin moiety to a lysine residue in the substrate. This can be followed by further additions of ubiquitin to specific lysine residues within the linked ubiquitin itself, resulting in a poly-ubiquitin chain. This covalent modification can be reversed by unique proteases specific for the iso-peptide linkage. Although ubiquitin is the best-characterized polypeptide modifier, other polypeptides (often referred to as Ubiquitin-like, or Ubl) are also conjugated to targets in analogous reactions. These ‘alternative’ modifiers, which differ from ubiquitin in sequence similarity but which are structurally similar to ubiquitin, include SUMO; Nedd8; Hub 1, ISG15 or UCRP; and Apg 12 (reviewed in Aguilar).
Previously, assays for ubiquitination have relied upon immunoblotting of proteins with anti-ubiquitin antibodies, or on labelling of proteins with a fluorophore-tagged ubiquitin polypeptide. […] FIGS. 11-12 show the results of the transient transfection of the PCA constructs. […] Since the process of ubiquitination targets proteins for degradation, we used ALLN (see Table 3 for concentration) to inhibit the proteasome activity of the cell in order to ensure that the arrestin/ubiquitin complex would accumulate in the cells and be detectable. […] The effects of Trichostatin A are particularly interesting in light of recent findings linking HDAC inhibition with the attenuation of cardiac hypertrophy induced by isoproterenol or by overexpression of proteins linked to cardiac growth and proliferation (Cardiac hypertrophy and histone deacetylase-dependent transcriptional repression mediated by the atypical homeodomain protein Hop; H. Kook, et al., J Clin Invest. 2003 September; 112(6):863-71). […]

[2] = target: T1, interaction of the beta-adrenergic receptor with beta-arrestin2 (Homo sapiens, UniProt P07550); format: cell-based; details: HEK293T stable line, 480 minutes, concentrations of Table 3
T1 construct: (Gly-Gly-Gly-Gly-Ser)2 linker between receptor and YFP[2]; YFP[2]; (EYFP amino acids 159-239); expressed in transfected cells
Procedure: For the betaARR2/beta2AR, stable cell lines were generated.
Drug concentrations initially were chosen based on literature references and were further refined to ensure lack of toxicity in HEK293 cells, based on lactate dehydrogenase (LDH) toxicity analyses. All liquid handling steps were performed using the Biomek FX platform (Beckman Instruments, Fullerton, Calif.). Cells expressing the betaARR2/beta2AR PCA were incubated in cell culture medium containing drugs for 30 min., 90 min., and 8 hours. […] Cells were subsequently rinsed with HBSS (Invitrogen) and maintained in the same buffer during image acquisition. […] All treatment conditions were run in duplicate yielding a total of 8 images for each wavelength and treatment condition.
For these high-content assays, image analysis is needed to convert the acquired images into fluorescence intensity and, if desired, to resolve the subcellular distribution of the fluorescence signal. […] Raw images in 16-bit grayscale TIFF format were analyzed using ImageJ API/library as described in the literature. […] Next a threshold was established to separate the foreground from background. An iterative algorithm based on Particle Analyzer from ImageJ was applied to the thresholded Hoechst channel image (HI) to obtain the total cell count. The nuclear region of a cell (nuclear mask) was also derived from the thresholded HI. A WGA mask was generated similarly from the thresholded Texas Red image. […] To calculate the global background (gBG), a histogram was obtained from the un-thresholded YI and the pixel intensity of the lowest intensity peak was identified as gBG. […] The mean pixel intensity for all positive particles within each defined sub-region was calculated, resulting in 4 parameters: total positive pixel mean (MT, the mean intensity of the total particle fluorescence); Hoechst mean (M1, the mean intensity of the Hoechst defined region); Texas Red mean (M2, the mean intensity of the WGA-defined region); and Subtracted mean (M3, the mean intensity of the pixels excluded from the WGA- and Hoechst-defined regions). All means were corrected for the corresponding gBG.
For each set of experiments (assay+drug treatment+treatment time), positive pixel data from eight images were pooled. For each parameter, an outlier filter was applied to filter out those particles falling outside the range (mean±3SD) of the group. Next the sample mean or control mean for each parameter was obtained from each filtered group.

| Compound | fluorescence intensity of the YFP channel as percent of control, later time points (FIG. 10) [2] | beta-arrestin2/ubiquitin assay fluorescence, positive pixel mean (PPM) as percent of control (FIG. 12) [1] | further results |
| --- | --- | --- | --- |
| CCCC[C@@H](C=O)NC(=O)[C@H](CC(C)C)NC(=O)[C@H](CC(C)C)NC(C)=O [ALLN] (Ac-Leu-Leu-[Nle]-aldehyde) | – | – | beta-arrestin2/ubiquitin PCA signal with proteasome inhibitor (FIG. 11) ([1]; transient transfection, absence of isoproterenol, ALLN at Table 3 concentration): clearly visible in the presence of ALLN; also recorded: Signal was apparent only in the presence |
| Cc1ccc(S(=O)(=O)/C=C/C#N)cc1 [BAY 11-7082] | had effects only at later time points | – | – |
| CC(C)C[C@@H](C=O)NC(=O)[C@H](CC(C)C)NC(=O)[C@H](CC(C)C)NC(=O)OCc1ccccc1 [MG132] (Cbz-Leu-Leu-Leu-aldehyde) | – | significantly increased the assay signal; also recorded: increased the signal fourfold | – |
| CC(/C=C/C(=O)NO)=C\[C@@H](C)C(=O)c1ccc(N(C)C)cc1 [Trichostatin A] | – | significantly increased the assay signal; also recorded: increased the signal fourfold | – |
| CC(C)NCC(O)c1ccc(O)c(O)c1 (stereo not drawn) [isoproterenol] | – | – | beta-arrestin2/ubiquitin PCA fluorescence intensity after agonist (FIG. 11) ([1]; in the presence of ALLN, 60-120 minutes): caused a significant increase in fluorescence intensity; also recorded: caused a significant increase in signal |
| pertussis toxin | had effects only at later time points | – | – |
